Data from ChEMBL document CHEMBL1201862, “PubChem BioAssay data set” (2004).
The source made the active and inactive calls.

How the values were obtained:
HEK293 [1] = assay: cytotoxicity in HEK293T NF-kB-Luc cells, SAR follow-up, cytotoxicity control for NF-kB activator project, cell-based, resazurin fluorescence (AID 493251); format: functional; details: Homo sapiens
Jurkat = assay: SAR Analysis of small molecule inhibitors of T-cell specific antigen receptor-induced NF-kB activation in a Jurkat cell line using a luminescence assay. [Related pubchem assays (depositor defined):AID435003, AID435012, AID465]; format: functional, cell-based; details: Homo sapiens
HEK293 [2] = assay: SAR Analysis of small molecule inhibitors of T-cell specific antigen receptor-induced NF-kB activation in a HEK-293T cell line using a luminescence assay. [Related pubchem assays (depositor defined):AID435003, AID435012, AID489026]; format: functional, cell-based; details: Homo sapiens
[3] = target: Delta-type opioid receptor (Homo sapiens, UniProt P41143); assay: Counterscreen for agonists of heterodimerization of the mu 1 (OPRM1) and delta 1 (OPRD1) opioid receptors: Luminescence-based cell-based high throughput dose response assay to identify agonists of OPRD1 homodimerization. [Related pubchem assays (depositor defined):AID504326, AID504355, AID504692, AID504904, AID504905]; format: functional
Mu-type opioid receptor = Mu-type opioid receptor (Homo sapiens, UniProt P35372); assay: Counterscreen for agonists of heterodimerization of the mu 1 (OPRM1) and delta 1 (OPRD1) opioid receptors: Luminescence-based cell-based high throughput dose response assay to identify agonists of OPRM1 homodimerization.; format: functional;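 further: U2OS cells expressing OPRM1 and beta-arrestin as split beta-galactosidase partners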
[4] = target: 5-hydroxytryptamine receptor 5A (Homo sapiens, UniProt P47898); assay: Counterscreen for agonists of OPRM1-OPRD1 heterodimerization: luminescence-based cell-based high throughput dose response assay to identify agonists of 5-hydroxytryptamine (serotonin) 5A receptor (HTR5A). [Related pubchem assays (depositor defined):AID504326, AID504355, AID504692, AID504904, AID504905]; format: functional
[5] = insulin promoter down-regulators in MIN6 cells, imaging, high-content screening, mouse beta cells (AID 1628); format: functional
[6] = cytotoxicity in MIN6 insulinoma cells, dose response, cytotoxicity control, cell-based, mouse insulinoma (AID 2122); format: functional;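 further: confirmatory high-throughput counterscreen run to flag cytotoxic compounds; mouse MIN-6 beta cells carrying an insulin promoter eGFP reporter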
Phospholipase A2 = Phospholipase A2 (Homo sapiens, UniProt P04054); assay: PLA2 enzyme inhibitors, dose response, counter-screen for ATG4B inhibitor project, biochemical, set 2 (AID 588586); format: functional
Cysteine protease ATG4B = Cysteine protease ATG4B (Homo sapiens, UniProt Q9Y4P1); assay: ATG4B protease inhibitors, dose response, biochemical, fluorescence, set 2 (AID 588584); format: functional
DNA topoisomerase = DNA topoisomerase (Yersinia pestis, UniProt A0A2S9PM60); assay: Y. pestis Topo-I inhibitors, cleavage product readout, dose response, biochemical, cherry-pick (AID 588525)
[7] = HEp-2 cell cytotoxicity, dose response, cytotoxicity control for RSV inhibitor project, HTS (AID 2410); format: functional; details: human respiratory syncytial virus
[8] = Luminescence Cell-Based Dose Retest to Confirm Inhibitors of Cancer Stem Cells. [Related pubchem assays (depositor defined):AID2717, AID2721]; format: functional; details: Homo sapiens
Trypsin = Trypsin (Sus scrofa, UniProt P00761); assay: porcine trypsin inhibitors, dose response, selectivity assay for Rce1 protease inhibitor project, biochemical, quenched peptide fluorescence, cherry-pick (AID 488789)
CAAX prenyl protease 2 = CAAX prenyl protease 2 (Homo sapiens, UniProt Q9Y256); assay: human Rce1 protease inhibitors, dose response, biochemical, yeast membranes, quenched-peptide fluorescence, cherry-pick (AID 588849)
[9] = target: T1, Mannose-6-phosphate isomerase (Homo sapiens, UniProt P34949); assay: inhibitors of human PMI, primary screen, biochemical, fluorescence intensity, coupled assay (AID 1209)
T1 sequence (P34949 whole entry): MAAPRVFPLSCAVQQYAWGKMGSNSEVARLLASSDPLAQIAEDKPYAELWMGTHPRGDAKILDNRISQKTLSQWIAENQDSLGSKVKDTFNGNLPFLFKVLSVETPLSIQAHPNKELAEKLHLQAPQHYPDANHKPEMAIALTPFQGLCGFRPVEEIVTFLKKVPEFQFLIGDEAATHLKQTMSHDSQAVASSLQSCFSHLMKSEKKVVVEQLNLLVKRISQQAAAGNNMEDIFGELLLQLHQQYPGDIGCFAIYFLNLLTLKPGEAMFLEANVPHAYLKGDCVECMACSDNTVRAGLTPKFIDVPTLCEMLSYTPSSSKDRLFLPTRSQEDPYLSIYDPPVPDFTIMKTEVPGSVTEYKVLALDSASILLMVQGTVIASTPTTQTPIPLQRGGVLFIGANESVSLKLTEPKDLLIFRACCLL

[10] = target: T1, Mannose-6-phosphate isomerase; assay: PMI enzyme inhibitors, confirmation, biochemical, fluorescence intensity (AID 1535)
[11] = target: DNA dC->dU-editing enzyme APOBEC-3A (Homo sapiens, UniProt P31941); assay: APOBEC3A DNA deaminase inhibitors, dose response, biochemical (AID 504722); format: functional
Phosphomannomutase 2 = Phosphomannomutase 2 (Homo sapiens, UniProt O15305); assay: Counter screen SAR assay for PMM2 inhibitors via a fluorescence intensity assay. [Related pubchem assays (depositor defined):AID1545, AID1574]
[12] = target: DNA dC->dU-editing enzyme APOBEC-3G (Homo sapiens, UniProt Q9HC16); assay: Dose Response confirmation of small molecule APOBEC3G DNA Deaminase Inhibitors via a fluorescence-based single-stranded DNA deaminase assay. [Related pubchem assays (depositor defined):AID493012, AID493028]; format: functional
Candida albicans = assay: reversal of fluconazole resistance in C. albicans, dose response, CaCi-2 strain, Alamar Blue, dry powder, set 3 (AID 488907); format: functional, organism-based

Chain of Cysteine protease ATG4B (Q9Y4P1 whole entry): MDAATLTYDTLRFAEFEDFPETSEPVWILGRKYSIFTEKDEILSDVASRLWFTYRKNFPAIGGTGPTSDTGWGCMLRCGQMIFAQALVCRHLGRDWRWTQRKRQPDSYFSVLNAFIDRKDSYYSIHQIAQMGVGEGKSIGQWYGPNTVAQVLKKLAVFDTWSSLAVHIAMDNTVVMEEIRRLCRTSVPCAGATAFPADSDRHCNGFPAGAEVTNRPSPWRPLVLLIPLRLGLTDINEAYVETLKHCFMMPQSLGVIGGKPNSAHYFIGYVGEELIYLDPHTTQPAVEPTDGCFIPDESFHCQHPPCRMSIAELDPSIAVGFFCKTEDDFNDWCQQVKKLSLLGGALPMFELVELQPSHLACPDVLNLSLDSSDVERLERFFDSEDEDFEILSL
Chain of CAAX prenyl protease 2 (Q9Y256 whole entry): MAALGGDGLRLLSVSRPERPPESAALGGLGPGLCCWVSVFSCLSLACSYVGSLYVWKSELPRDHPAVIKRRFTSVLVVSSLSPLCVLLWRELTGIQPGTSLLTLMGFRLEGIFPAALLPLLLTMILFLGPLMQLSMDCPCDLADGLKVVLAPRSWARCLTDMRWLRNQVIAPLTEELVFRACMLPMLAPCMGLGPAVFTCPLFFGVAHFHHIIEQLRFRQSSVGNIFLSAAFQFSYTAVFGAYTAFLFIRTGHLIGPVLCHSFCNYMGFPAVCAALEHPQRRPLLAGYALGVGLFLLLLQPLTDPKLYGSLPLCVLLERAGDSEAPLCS
Chain of 5-hydroxytryptamine receptor 5A (P47898 whole entry): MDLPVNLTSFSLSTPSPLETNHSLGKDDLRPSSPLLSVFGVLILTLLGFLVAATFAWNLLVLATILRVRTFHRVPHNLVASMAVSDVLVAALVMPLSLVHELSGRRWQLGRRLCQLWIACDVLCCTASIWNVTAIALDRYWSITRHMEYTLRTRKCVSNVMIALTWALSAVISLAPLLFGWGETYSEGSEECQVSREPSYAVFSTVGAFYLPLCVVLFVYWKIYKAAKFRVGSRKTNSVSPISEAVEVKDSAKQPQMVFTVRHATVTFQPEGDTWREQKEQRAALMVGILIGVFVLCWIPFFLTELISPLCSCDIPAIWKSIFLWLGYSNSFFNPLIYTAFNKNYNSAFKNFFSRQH
Chain of DNA dC->dU-editing enzyme APOBEC-3A (P31941 whole entry): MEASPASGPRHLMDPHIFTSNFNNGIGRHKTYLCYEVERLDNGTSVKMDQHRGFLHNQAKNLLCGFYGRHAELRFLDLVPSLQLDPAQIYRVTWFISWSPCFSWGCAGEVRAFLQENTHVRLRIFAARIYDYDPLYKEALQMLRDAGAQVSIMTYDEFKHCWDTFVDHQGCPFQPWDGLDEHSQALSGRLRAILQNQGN
Chain of Phospholipase A2 (P04054 whole entry): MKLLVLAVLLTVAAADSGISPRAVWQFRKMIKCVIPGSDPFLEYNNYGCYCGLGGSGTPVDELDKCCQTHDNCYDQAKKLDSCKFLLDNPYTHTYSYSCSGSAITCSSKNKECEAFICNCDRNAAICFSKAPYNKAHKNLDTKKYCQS
Chain of Phosphomannomutase 2 (O15305 whole entry): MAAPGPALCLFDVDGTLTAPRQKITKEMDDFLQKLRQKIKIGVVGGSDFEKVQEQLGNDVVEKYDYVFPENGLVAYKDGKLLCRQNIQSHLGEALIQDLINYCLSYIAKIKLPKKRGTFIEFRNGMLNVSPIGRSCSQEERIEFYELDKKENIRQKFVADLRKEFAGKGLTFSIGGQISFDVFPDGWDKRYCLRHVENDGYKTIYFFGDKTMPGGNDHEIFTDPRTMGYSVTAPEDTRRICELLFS
Chain of DNA topoisomerase (A0A2S9PM60 whole entry): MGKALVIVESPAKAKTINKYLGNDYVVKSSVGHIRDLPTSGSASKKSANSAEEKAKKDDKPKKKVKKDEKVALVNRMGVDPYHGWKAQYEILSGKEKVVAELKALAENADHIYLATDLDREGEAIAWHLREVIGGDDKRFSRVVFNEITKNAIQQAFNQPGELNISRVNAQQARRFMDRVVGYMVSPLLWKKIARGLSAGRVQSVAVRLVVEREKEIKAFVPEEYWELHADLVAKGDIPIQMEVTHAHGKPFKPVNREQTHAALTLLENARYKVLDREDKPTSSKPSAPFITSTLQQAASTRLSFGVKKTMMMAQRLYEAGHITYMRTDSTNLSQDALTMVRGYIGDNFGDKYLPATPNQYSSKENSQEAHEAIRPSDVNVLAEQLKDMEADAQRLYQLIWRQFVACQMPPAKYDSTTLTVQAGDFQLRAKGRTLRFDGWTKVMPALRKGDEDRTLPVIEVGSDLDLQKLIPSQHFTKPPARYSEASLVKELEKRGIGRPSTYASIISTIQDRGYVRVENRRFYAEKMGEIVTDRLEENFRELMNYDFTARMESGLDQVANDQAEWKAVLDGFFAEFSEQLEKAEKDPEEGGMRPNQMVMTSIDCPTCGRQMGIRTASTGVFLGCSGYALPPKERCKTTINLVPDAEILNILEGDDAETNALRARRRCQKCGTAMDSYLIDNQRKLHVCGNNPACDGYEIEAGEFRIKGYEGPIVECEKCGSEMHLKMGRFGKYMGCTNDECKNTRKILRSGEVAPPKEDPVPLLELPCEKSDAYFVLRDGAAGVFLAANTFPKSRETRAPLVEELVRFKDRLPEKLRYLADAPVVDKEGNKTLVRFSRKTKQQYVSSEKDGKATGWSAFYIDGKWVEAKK
Chain of Trypsin (P00761 whole entry): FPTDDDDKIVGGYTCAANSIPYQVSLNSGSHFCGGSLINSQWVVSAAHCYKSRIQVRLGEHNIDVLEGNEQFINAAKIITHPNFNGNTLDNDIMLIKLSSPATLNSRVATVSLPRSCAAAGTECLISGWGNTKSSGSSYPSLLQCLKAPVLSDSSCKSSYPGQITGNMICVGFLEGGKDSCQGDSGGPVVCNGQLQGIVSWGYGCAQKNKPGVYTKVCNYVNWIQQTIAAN
Chain of Delta-type opioid receptor (P41143 whole entry): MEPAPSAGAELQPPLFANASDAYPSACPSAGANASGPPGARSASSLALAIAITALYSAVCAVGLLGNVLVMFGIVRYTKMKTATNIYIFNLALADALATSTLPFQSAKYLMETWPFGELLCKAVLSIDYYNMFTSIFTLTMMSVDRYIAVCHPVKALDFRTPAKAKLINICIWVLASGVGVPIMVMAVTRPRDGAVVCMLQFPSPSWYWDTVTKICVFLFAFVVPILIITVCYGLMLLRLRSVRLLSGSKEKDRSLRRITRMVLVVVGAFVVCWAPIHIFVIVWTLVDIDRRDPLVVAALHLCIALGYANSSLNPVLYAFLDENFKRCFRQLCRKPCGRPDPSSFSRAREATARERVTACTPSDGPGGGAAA
Chain of Mu-type opioid receptor (P35372 whole entry): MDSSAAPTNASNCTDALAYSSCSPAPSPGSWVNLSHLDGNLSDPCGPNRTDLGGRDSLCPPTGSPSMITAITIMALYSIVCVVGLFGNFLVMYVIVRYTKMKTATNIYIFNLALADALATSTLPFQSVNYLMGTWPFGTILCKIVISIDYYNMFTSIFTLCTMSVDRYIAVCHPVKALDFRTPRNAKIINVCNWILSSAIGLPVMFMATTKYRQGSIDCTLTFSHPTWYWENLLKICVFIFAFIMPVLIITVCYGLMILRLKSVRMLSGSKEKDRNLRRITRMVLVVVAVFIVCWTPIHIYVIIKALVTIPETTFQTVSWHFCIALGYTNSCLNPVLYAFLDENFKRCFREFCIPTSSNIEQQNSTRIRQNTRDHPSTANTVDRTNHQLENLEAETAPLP
Chain of DNA dC->dU-editing enzyme APOBEC-3G (Q9HC16 whole entry): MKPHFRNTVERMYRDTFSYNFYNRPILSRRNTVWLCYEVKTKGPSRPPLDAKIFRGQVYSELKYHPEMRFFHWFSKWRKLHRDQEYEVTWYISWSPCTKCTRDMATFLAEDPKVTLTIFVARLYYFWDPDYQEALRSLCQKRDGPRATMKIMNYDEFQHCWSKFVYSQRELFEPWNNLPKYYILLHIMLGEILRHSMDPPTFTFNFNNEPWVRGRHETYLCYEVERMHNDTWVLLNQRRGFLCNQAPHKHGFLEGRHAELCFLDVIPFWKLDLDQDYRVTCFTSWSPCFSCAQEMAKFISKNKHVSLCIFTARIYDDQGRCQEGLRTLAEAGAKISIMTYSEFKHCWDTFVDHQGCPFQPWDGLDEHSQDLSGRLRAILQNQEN

In the case of `COc1cccc(C(=O)Nc2ccc3[nH]c(-c4cccc(OC)c4)cc(=O)c3c2)c1`, the IC50 (HEK293 [1]) is reported as 42.2 µM (inactive), the IC50 (Jurkat) is reported as > 79 µM (inactive) and the IC50 (HEK293 [2]) is reported as > 79 µM (inactive).
In the case of `Cc1ccc(CSCC(=O)N/N=C/c2sccc2C)cc1`, the EC50 [3] is reported as > 92.5 µM (inactive), the EC50 (Mu-type opioid receptor) is reported as 42.8 µM (inactive) and the EC50 [4] is reported as > 92.5 µM (inactive).
For `COc1ccc(OCC(O)Cn2c(=N)n(CCN3CCCCC3)c3ccccc32)cc1` (configuration not stated), the IC50 [5] was 2.41 µM (active) and the IC50 [6] was 4.23 µM (active).
With `O=C(NCc1cccc(C(F)(F)F)c1)C1CC(c2c(Cl)cccc2Cl)=NO1` (configuration not stated) the IC50 (Phospholipase A2) was 46.4 µM (inactive) and the IC50 (Cysteine protease ATG4B) was > 80 µM (inactive).
For `Cc1cc(C(=O)COC(=O)Cc2nnc(O)c3ccccc23)c(C)n1-c1cccc(C(F)(F)F)c1`, the AC50 (DNA topoisomerase) was 11.4 µM (active).
For `Cc1cccc(-c2oc3ccccc3c2C#CCCO)c1`, the CC50 [7] was 19.5 µM (active), the AC50 [8] was 7.86 µM (active) and the AC50 (Trypsin) was 3.96 µM (active). The AC50 (CAAX prenyl protease 2) was 32 µM (active) and the IC50 (cells) was 24.2 µM (active).
With `S=c1[nH]nc(C2COc3ccccc3O2)[nH]1` (configuration not stated) the IC50 [9] was 7.29 µM (active), the IC50 [10] was 3.89 µM (active) and the IC50 [11] was > 100 µM (inactive). For the same compound, the IC50 (Phosphomannomutase 2) was > 100 µM (inactive) and the IC50 [12] was 4.34 µM (active).
In the case of `CC(C)C(=O)N1CCN(c2ccccn2)CC1`, the AC50 (Candida albicans) is reported as 0.961 µM (active).
